Reference: US20060189811A1, “Process for producing 1,2,4-triazole compound and intermediate therefor” (FUJIYAKUHIN CO., LTD., priority 2004, published 2006)

Tested on: serum uric acid level
Experiment: Serum uric acid level-lowering action
Type: in vivo
Details: male wister rats, oral 0.3 mg/5 mL/Kg in 0.5% MC, blood collected six hours after administration, vs MC group
Protocol: Serum Uric Acid Level-Lowering Action
To male wister rats of 7 weeks old (4 rats per group) was orally administered compulsorily a test substance suspended in 0.5% aqueous solution of methyl cellulose (MC) in such an amount as to provide 0.3 mg/5 mL/Kg by using a stomach sonde. Six hours after the administration of the test substance, a blood sample was collected from the orbital vein. After allowing to stand at room temperature for 1 hour, the blood sample was centrifuged at 2000×g for 10 minutes to collect serum. […] Lowering rate of serum uric acid level (%)=(1-average serum uric acid level of the group administered with test compound/average serum uric acid level of the group administered with MC)×100

Cc1ccc(S(=O)(=O)O)cc1.N#Cc1cc(-c2nc(-c3ccncc3)n[nH]2)ccn1 [Example 2, 5-(2-cyano-4-pyridyl)-3-(4-pyridyl)-1,2,4-triazole p-toluenesulfonate]
Lowering rate of serum uric acid level: 51.1%
